Values after ≈ are worked out from the molar mass of the structure shown. Non-standard residues stand in square brackets, D forms with d. Residues, ends and D or L forms follow the SMILES beside them. Bip = N[C@@H](Cc1ccc(-c2ccccc2)cc1)C(=O)O; pY = N[C@@H](Cc1ccc(OP(=O)(O)O)cc1)C(=O)O; 2Nal = N[C@@H](Cc1ccc2ccccc2c1)C(=O)O
How the values were obtained:
Staphylococcus aureus [1] = experiment: Antibacterial activity against methicillin resistant Staphylococcus aureus ATCC 33591 incubated for 18 to 24 hrs by broth microdilution method; assay type: functional; conditions: time 18-24 hrs
Staphylococcus aureus [2] = experiment: Antibacterial activity against methicillin resistant Staphylococcus aureus 48 incubated for 18 to 24 hrs by broth microdilution method; assay type: functional; conditions: time 18-24 hrs
Staphylococcus aureus [3] = experiment: Antibacterial activity against Staphylococcus aureus 794 incubated for 18 to 24 hrs by broth microdilution method; assay type: functional; conditions: time 18-24 hrs
Escherichia coli [4] = experiment: Antibacterial activity against Escherichia coli 780 incubated for 18 to 24 hrs by broth microdilution method; assay type: functional; conditions: time 18-24 hrs
Escherichia coli [5] = experiment: Antibacterial activity against Escherichia coli 850 incubated for 18 to 24 hrs by broth microdilution method; assay type: functional; conditions: time 18-24 hrs
Pseudomonas aeruginosa [6] = experiment: Antibacterial activity against Pseudomonas aeruginosa 119 incubated for 18 to 24 hrs by broth microdilution method; assay type: functional; conditions: time 18-24 hrs
Staphylococcus aureus [7] = experiment: Antibacterial activity against Staphylococcus aureus ATCC 25923 incubated for 18 to 24 hrs by broth microdilution method; assay type: functional; conditions: time 18-24 hrs
Bacillus subtilis = experiment: Antibacterial activity against Bacillus subtilis ATCC 23857 incubated for 18 to 24 hrs by broth microdilution method; assay type: functional; conditions: time 18-24 hrs
Escherichia coli [8] = experiment: Antibacterial activity against Escherichia coli ATCC 25922 incubated for 18 to 24 hrs by broth microdilution method; assay type: functional; conditions: time 18-24 hrs
Pseudomonas aeruginosa [9] = experiment: Antibacterial activity against Pseudomonas aeruginosa ATCC 27853 incubated for 18 to 24 hrs by broth microdilution method; assay type: functional; conditions: time 18-24 hrs
Klebsiella pneumoniae = experiment: Antibacterial activity against Klebsiella pneumoniae ATCC 700603 incubated for 18 to 24 hrs by broth microdilution method; assay type: functional; conditions: time 18-24 hrs
Acinetobacter baumannii = experiment: Antibacterial activity against Acinetobacter baumannii ATCC 19606 incubated for 18 to 24 hrs by broth microdilution method; assay type: functional; conditions: time 18-24 hrs
[10] = Hemolytic activity in mouse erythrocyte incubated for 1 hr by microplate reader assay; assay type: toxicity, cell-based
[11] = Cytotoxicity against HEK293T cells incubated for 1 hr by fluorescence based microplate reader assay; assay type: toxicity, cell-based, HEK-293T; conditions: human

Row | Molecule | MIC (Staphylococcus aureus [1]) [µM] | MIC (Staphylococcus aureus [2]) [µM] | MIC (Staphylococcus aureus [3]) [µM] | MIC (Escherichia coli [4]) [µM] | MIC (Escherichia coli [5]) [µM] | MIC (Pseudomonas aeruginosa [6]) [µM] | MIC (Staphylococcus aureus [7]) [µM] | MIC (Bacillus subtilis) [µM] | MIC (Escherichia coli [8]) [µM] | MIC (Pseudomonas aeruginosa [9]) [µM] | MIC (Klebsiella pneumoniae) [µM] | MIC (Acinetobacter baumannii) [µM] | MHC [10] [µM] | CC50 at 1 h [11] [µM]
1 | H-GLWKRLKYLL-NH2 | 8 | 8 | 8 | 8 | 8 | 16 | 8 | 4 | 8 | 8 | 8 | 8 | 182.72 | 115
2 | CC(C)C[C@H](NC(=O)[C@H](CC(C)C)NC(=O)[C@H](Cc1ccc(O)cc1)NC(=O)[C@H](CCCCN)NC(=O)[C@H](CC(C)C)NC(=O)[C@H](CCCNC(=N)N)NC(=O)[C@H](CCCCN)NC(=O)[C@H](Cc1ccc2ccccc2c1)NC(=O)[C@H](CC(C)C)NC(=O)CN)C(N)=O (H-GL[2Nal]KRLKYLL-NH2) | 8 (≈ 10.4 µg/mL) | 8 (≈ 10.4 µg/mL) | 8 (≈ 10.4 µg/mL) | 8 (≈ 10.4 µg/mL) | 8 (≈ 10.4 µg/mL) | 8 (≈ 10.4 µg/mL) | 8 (≈ 10.4 µg/mL) | 4 (≈ 5.2 µg/mL) | 8 (≈ 10.4 µg/mL) | 8 (≈ 10.4 µg/mL) | 8 (≈ 10.4 µg/mL) | 8 (≈ 10.4 µg/mL) | 78.09 | 61.5
3 | CC(C)C[C@H](NC(=O)[C@H](CC(C)C)NC(=O)[C@H](Cc1ccc(OP(=O)(O)O)cc1)NC(=O)[C@H](CCCCN)NC(=O)[C@H](Cc1ccc(-c2ccccc2)cc1)NC(=O)[C@H](CCCNC(=N)N)NC(=O)[C@H](CCCCN)NC(=O)[C@H](CC(C)C)NC(=O)[C@H](CC(C)C)NC(=O)CN)C(N)=O (H-GLLKR[Bip]K[pY]LL-NH2) | 8 (≈ 11.2 µg/mL) | 8 (≈ 11.2 µg/mL) | 8 (≈ 11.2 µg/mL) | 16 (≈ 22.5 µg/mL) | 16 (≈ 22.5 µg/mL) | 32 (≈ 45 µg/mL) | 16 (≈ 22.5 µg/mL) | 8 (≈ 11.2 µg/mL) | 8 (≈ 11.2 µg/mL) | 32 (≈ 45 µg/mL) | 16 (≈ 22.5 µg/mL) | 8 (≈ 11.2 µg/mL) | 131.69 | 110
4 | CC(C)C[C@H](NC(=O)[C@H](CC(C)C)NC(=O)[C@H](Cc1ccc(OP(=O)(O)O)cc1)NC(=O)[C@H](CCCCN)NC(=O)[C@H](CC(C)C)NC(=O)[C@H](CCCNC(=N)N)NC(=O)[C@H](CCCCN)NC(=O)[C@H](Cc1c[nH]c2ccccc12)NC(=O)[C@H](CC(C)C)NC(=O)CN)C(N)=O (H-GLWKRLK[pY]LL-NH2) | 16 (≈ 21.9 µg/mL) | 16 (≈ 21.9 µg/mL) | 8 (≈ 10.9 µg/mL) | 8 (≈ 10.9 µg/mL) | 16 (≈ 21.9 µg/mL) | 64 (≈ 87.6 µg/mL) | 16 (≈ 21.9 µg/mL) | 8 (≈ 10.9 µg/mL) | 8 (≈ 10.9 µg/mL) | 32 (≈ 43.8 µg/mL) | 16 (≈ 21.9 µg/mL) | 8 (≈ 10.9 µg/mL) | 268.04 | 148
5 | CC(C)C[C@H](NC(=O)[C@H](CC(C)C)NC(=O)[C@@H](NC(=O)[C@H](CCCCN)NC(=O)[C@H](CC(C)C)NC(=O)[C@H](CCCNC(=N)N)NC(=O)[C@H](CCCCN)NC(=O)[C@H](Cc1ccc2ccccc2c1)NC(=O)[C@H](CC(C)C)NC(=O)CN)[C@@H](C)O)C(N)=O (H-GL[2Nal]KRLKTLL-NH2) | 8 (≈ 9.9 µg/mL) | 8 (≈ 9.9 µg/mL) | 8 (≈ 9.9 µg/mL) | 8 (≈ 9.9 µg/mL) | 8 (≈ 9.9 µg/mL) | 8 (≈ 9.9 µg/mL) | 8 (≈ 9.9 µg/mL) | 8 (≈ 9.9 µg/mL) | 8 (≈ 9.9 µg/mL) | 8 (≈ 9.9 µg/mL) | 8 (≈ 9.9 µg/mL) | 8 (≈ 9.9 µg/mL) | 154.3 | 111
6 | C[C@@H](O)[C@H]1C(=O)N2C(C(=O)O)=C(S[C@@H]3CN[C@H](C(=O)N(C)C)C3)[C@H](C)[C@H]12 [MEROPENEM] | 64 (≈ 24.5 µg/mL) | 128 (≈ 49.1 µg/mL) | < 1 | < 1 | < 1 | 8 (≈ 3.07 µg/mL) | < 1 | < 1 | < 1 | 1 (≈ 0.383 µg/mL) | 2 (≈ 0.767 µg/mL) | 2 (≈ 0.767 µg/mL) |  | 
7 | COc1cccc(OC)c1C(=O)N[C@@H]1C(=O)N2[C@@H]1SC(C)(C)[C@@H]2C(=O)O [METHICILLIN] | > 128 | > 128 | > 128 | > 128 | > 128 | > 128 | 8 (≈ 3.04 µg/mL) | < 1 | > 128 | > 128 | > 128 | > 128 |  | 
8 | O=C(O)c1cn(C2CC2)c2cc(N3CCNCC3)c(F)cc2c1=O [CIPROFLOXACIN] |  |  |  |  |  |  | 16 (≈ 5.3 µg/mL) | 2 (≈ 0.663 µg/mL) | < 1 | 4 (≈ 1.33 µg/mL) |  | 16 (≈ 5.3 µg/mL) |  | 
